Experimental data from patent publication US9789156B2, “Combination anti-human epidermal growth factor receptor 2 (anti-HER2) cancer therapy using mucin 1 (MUC1) peptides and hemotherapeutics” (DANA-FARBER CANCER INSTITUTE, INC., priority 2013, dated 2017).
Like-named read-outs stand apart in the source and are kept apart here. Square brackets hold non-standard residues; d marks the D form. Peptide text beside a SMILES is read from it.

Columns and labels:
[1] = test system: BT474 cells; type: cell-based, human; conditions: 72 h
Protocol: (§1) Cell culture. SKBR3 and BT474 cells were obtained from ATCC (Rockville, Md.). SKBR3 and BT474 were maintained in McCoy's 5a modified medium and Dulbecco's modified Eagle medium/Ham F12 (1:1) supplemented with 10% heat-inactivated FBS, 100 units/ml penicillin, […] streptomycin, and 2 mM L-glutamine. […] Cells were treated with GO-203 and CP-2 peptides (AnaSpec). […] Viability was determined by trypan blue exclusion.
(§2) Determination of IC50 and synergism. Cells were seeded on 96-well plates in 100 μl of growth medium at a density of 3000 cells per well. After 24 h, the cells were exposed to drugs in treatment medium for an additional 72 h. Cell viability was assessed using the alamar blue viability assay (Invitrogen). Triplicate wells of each treatment were analyzed and each experiment was done three times. The IC50 values were determined by nonlinear regression of the dose-response data using Prism 5.0 for Mac OSX (GraphPad Software). […] Cell viability was determined after treatment for 72 h. The combination index (CI) was calculated to determine the presence of synergism (CI<1) or antagonism (CI>1) using CalcuSyn software (Biosoft).

[2] = test system: SKBR3 cells; type: cell-based, human
Protocol: as §1, §2

[3] = test system: BT474R tumor xenografts; assay: Trastuzumab-resistant BT474R tumor xenograft model; type: in vivo, BALB/c nu/nu mice; conditions: 7.5 mg/kg GO-203 intravenously each day for 21 days
Protocol: FIGS. 5A-G. Targeting MUC1-C in trastuzumab-resistant cells suppresses HER3 activation and inhibits growth and clonogenic survival. (FIG. 5A) Lysates from the indicated SKBR3R (left) and BT474R (right) cells were immunoblotted (IB) with anti-p-HER3 and anti-HER3. (FIG. 5B) The indicated SKBR3R (left) and BT474R (right) cells were seeded at 4000 and 1000 cells per well, respectively, and incubated for 12 days. The colony number is expressed as the mean±s.e. of three replicates. (FIG. 5C) SKBR3R cells were treated with […] GO-203 for the indicated times. Lysates were immunoblotted with the indicated antibodies. (FIG. 5D) SKBR3R cells were left untreated (Control; CTL) or treated with […] GO-203 for the indicated times. Cell number (mean±s.e. of three determinations) was determined by Trypan blue staining. (FIG. 5E) BT474R cells were treated with […] GO-203 for the indicated times. Lysates were immunoblotted with the indicated antibodies. (FIG. 5F) BT474R cells were left untreated (Control; CTL) or treated with […] GO-203 for the indicated times. Cell number (mean±s.e. of three determinations) was determined by Trypan blue staining. […] The results are expressed as tumor volume (mean±s.e. for the eight mice in each group).
Trastuzumab-resistant BT474R tumor xenograft model. […] Tumor volumes were calculated as described (Raina et al., 2011).

[4] = test system: BT474R cells; assay: cells; type: cell-based, human; conditions: for IC50: Homo sapiens, 72 h
Protocol: as §1, §2
(§3) Assessment of drug interaction by Bliss independence. […] Using this equation, if the experimentally measured inhibition is greater than Ei, then the combination is synergistic.38 Plots were generated by Prism GraphPad software.

[5] = test system: SKBR3R cells; assay: cells; type: cell-based; conditions: Homo sapiens, 72 h
Protocol: as §1, §2, §3

IC50 [1] [µM] | IC50 [2] [µM] | weight loss [3] | IC50 ([4]; read-out: Lapatinib (μM) IC50, BT474R cells, 72 h, lapatinib alone (Table 3)) [µM] | IC50 ([4]; read-out: Lapatinib (μM) IC50, BT474R cells, 72 h, lapatinib alone (Table 4)) [µM] | IC50 ([4]; read-out: Lapatinib (μM) IC50 with GO-203, BT474R cells, 72 h, with 4 μM GO-203) [µM] | IC50 ([4]; read-out: Lapatinib (μM) IC50 with Trastuzumab and GO-203, BT474R cells, 72 h, with 40 nM trastuzumab+4 μM GO-203) [µM] | IC50 ([4]; read-out: Lapatinib (μM) IC50 with Trastuzumab, BT474R cells, 72 h, with 40 nM trastuzumab) [µM] | IC50 ([5]; read-out: Lapatinib (μM) IC50, SKBR3R cells, 72 h, lapatinib alone (Table 3)) [µM] | IC50 ([5]; read-out: Lapatinib (μM) IC50, SKBR3R cells, 72 h, lapatinib alone (Table 4)) [µM] | IC50 ([5]; read-out: Lapatinib (μM) IC50 with GO-203, SKBR3R cells, 72 h, with 4 μM GO-203) [µM] | IC50 ([5]; read-out: Lapatinib (μM) IC50 with Trastuzumab and GO-203, SKBR3R cells, 72 h, with 40 nM trastuzumab+4 μM GO-203) [µM] | IC50 ([5]; read-out: Lapatinib (μM) IC50 with Trastuzumab, SKBR3R cells, 72 h, with 40 nM trastuzumab) [µM] | Compound | Fold change ([4]; BT474R cells, lapatinib IC50 alone vs with GO-203)
10.2 | 5.9 | no weight loss | – | – | – | – | – | – | – | – | – | – | N=C(N)NCCC[C@@H](N)C(=O)N[C@H](CCCNC(=N)N)C(=O)N[C@H](CCCNC(=N)N)C(=O)N[C@H](CCCNC(=N)N)C(=O)N[C@H](CCCNC(=N)N)C(=O)N[C@H](CCCNC(=N)N)C(=O)N[C@H](CCCNC(=N)N)C(=O)N[C@H](CCCNC(=N)N)C(=O)N[C@H](CCCNC(=N)N)C(=O)N[C@H](CS)C(=O)N[C@H](CCC(N)=O)C(=O)N[C@H](CS)C(=O)N[C@H](CCCNC(=N)N)C(=O)N[C@H](CCCNC(=N)N)C(=O)N[C@H](CCCCN)C(=O)N[C@H](CC(N)=O)C(=O)O [GO-203] (H-[dR][dR][dR][dR][dR][dR][dR][dR][dR][dC][dQ][dC][dR][dR][dK][dN]-OH) | –
– | – | – | 1.43 | 1.5 | 0.67 | 0.22 | 1.2 | 1.36 | 1.7 | 0.94 | 0.93 | 1.5 | CS(=O)(=O)CCNCc1ccc(-c2ccc3ncnc(Nc4ccc(OCc5cccc(F)c5)c(Cl)c4)c3c2)o1 [Lapatinib] | 2.13
